The test system of this test is retinal ganglion cells (RGCs). As to the kind of experiment: Rat in vivo OHT model, NeuN-positive RGC survival in whole mount retina. The conditions noted are these: OHT eyes, intravitreal, three weeks after microbead injection; single values. On the procedure:
Example 7. Rat in vivo OHT model induced by intracameral injection of microbeads—For induction of ocular hypertension (OHT) in vivo, sterile 6 μm polystyrene microbeads were injected into the anterior chamber of the left eye of each animal using a single-step, sclero-corneal tunnel approach with a 35G nanoneedle (FIG. 4A). […] After stabilization of elevated IOP, animals were randomly divided into 3 groups (non-treated OHT, AlloP injection, and ent-AlloP injection). AlloP and ent-AlloP were administered as a one-time intravitreal injection one week following bead injection. Non-treated OHT animals received sterile vehicle intravitreally. As a further control, vehicle was intravitreally injected 7 days after intracameral administration of 10 μl of PBS. Three weeks after bead injections, IOP was 26.7±3.7 mmHg in non-treated OHT eyes compared to 9.9±0.9 mmHg in control eyes. […]

“And” between values parts separate entries of the source, which are not always exact repeats. Equal values may be shown once.

As to `CC(=O)[C@H]1CC[C@H]2[C@@H]3CC[C@H]4C[C@H](O)CC[C@]4(C)[C@H]3CC[C@]12C` [AlloP, allopregnanolone], the “RGC Survival (FIG. 4N), number of NeuN-positive cells, individual 1-5” value is 2200 per square millimeter and 2240 per square millimeter and 1940 per square millimeter and 1860 per square millimeter and 1800 per square millimeter. The result for `CC(=O)[C@@H]1CC[C@@H]2[C@H]3CC[C@@H]4C[C@@H](O)CC[C@@]4(C)[C@@H]3CC[C@]21C` [ent-AlloP, ent-allopregnanolone] reads 2060 per square millimeter and 2260 per square millimeter and 2500 per square millimeter and 2200 per square millimeter and 2460 per square millimeter.

The record behind these values is US20240041898A9, “NEUROSTEROIDS AND ENANTIOMERS THEREOF FOR THE PREVENTION AND TREATMENT OF NEURODEGENERATIVE CONDITIONS” (priority 2019, published 2024).
